Data as given in patent US4061753A, “Treating psoriasis with transient pro-drug forms of xanthine derivatives” (INTERx Research Corporation, priority 1976, dated 1977).
In brackets after ≈: the same amount, converted by molar mass.

What was measured:
[1] = Partition Coefficient Studies (water solubility, heptane solubility, water/heptane partition)
[2] = Stability of the 7-hydroxymethyl derivative in water; type: physicochemical
[3] = e.g., heptane; cited from earlier work
phosphodiesterase = conditions: Sutherland and Rall 1958; cited from earlier work
[4] = heptane, organic solvent or mixture

| Compound | solubility ([1]; water) [mg/mL] | solubility [1, 4] [mg/mL] | Water/Heptane partition coefficient [1] | also measured |
| --- | --- | --- | --- | --- |
| CN(C)CC(=O)OCn1cnc2c1c(=O)n(C)c(=O)n2C | > 1000 | – | – | Heptane (solubility) ([1]; heptane): < 10 mg/500 ml |
| CCN(CC)C(=O)CCC(=O)OCn1cnc2c1c(=O)n(C)c(=O)n2C | 26.3 (≈ 72 mM) | 0.17 (≈ 0.465 mM) | – | – |
| Cn1c(=O)c2c(ncn2CO)n(C)c1=O [7-hydroxymethyl derivative, 7-hydroxymethyl theophylline] | – | – | – | stability in water [2]: extremely unstable in water |
| CCC(=O)OCn1cnc2c1c(=O)n(C)c(=O)n2C [C2 H5, 7-Propionyloxymethyl-theophylline] | 3.87 (≈ 14.5 mM) | 0.18 (≈ 0.676 mM) | 32.0 | – |
| CCCC(=O)OCn1cnc2c1c(=O)n(C)c(=O)n2C [C3 H7, 7-Butanoyloxymethyl-theophylline] | 3.89 (≈ 13.9 mM) | 0.65 (≈ 2.32 mM) | 6.30 | – |
| CCCCCC(=O)OCn1cnc2c1c(=O)n(C)c(=O)n2C [C5 H11, 7-Hexanoyloxymethyl-theophylline] | 0.11 (≈ 0.357 mM) | 2.26 (≈ 7.33 mM) | 0.42 | – |
| CCCCCCCC(=O)OCn1cnc2c1c(=O)n(C)c(=O)n2C [C7 H15, 7-Octanoyloxymethyl-theophylline] | 0.12 (≈ 0.357 mM) | 0.52 (≈ 1.55 mM) | 0.06 | – |
| Cn1c(=O)c2c(ncn2COC(=O)C(C)(C)C)n(C)c1=O [C(CH3)3, 7-Pivalyloxymethyl-theophylline] | 2.01 (≈ 6.83 mM) | 1.55 (≈ 5.27 mM) | 1.11 | – |
| Cn1c(=O)c2[nH]cnc2n(C)c1=O [theophylline] | – | – | – | solubility in lipid-like solvents [3]: almost insoluble; effect on degradation of cyclic AMP by inhibiting phosphodiesterase activity (phosphodiesterase): decrease the degradation of cyclic AMP by inhibiting phosphodiesterase activity |
